Assay results: PMC9415367 (Viruses, 2022)
“Also recorded” adds a separate entry of the source.

Experiments:
HEV-MTase [1] = target: T1, HEV-MTase (Hepatitis E virus genotype 1, UniProt P33424); assay: Cell-free inhibition of HEV-MTase activity (MTase-Glo Methyltransferase Assay); format: biochemical; conditions: 0.675 μM enzyme; for Inhibition of HEV-MTase activity: 1 μM compound
T1 construct: made in house; host or cells: E. coli BL21-DE3

HEV-MTase [2] = target: T1, HEV-MTase; assay: MicroScale Thermophoresis (MST) binding affinity; conditions: 50 nM MTase, HPPA 10 μM to 150 pM; read-out: Dissociation constant (Kd)
p6 HEV-Luc Replicon = assay: HEV replicon Renilla luciferase assay in Huh7 cells; format: cell-based, Hepatitis E Virus; conditions: for Inhibition of HEV Replicon (luciferase activity): Huh7 cells
HEV-ORF2 [3] = assay: Immunofluorescence assay of HEV ORF2; format: cell-based, Hepatitis E Virus; conditions: 800 μM, 7 days post-transfection; untreated 100%
HEV-ORF2 [4] = assay: Western blot of HEV ORF2; format: cell-based, Hepatitis E Virus; conditions: treated vs untreated cells, 7 days post-transfection
Influenza virus = test system: Influenza virus; parameters: method as in earlier work; conditions: cited from earlier work
in vitro = conditions: human, Huh7 cells
[5] = Cell viability assay (MTT); conditions: human, Huh7 cells
Huh7 cells = assay: Cell viability assay (MTT)

T1 sequence (P33424 33-353): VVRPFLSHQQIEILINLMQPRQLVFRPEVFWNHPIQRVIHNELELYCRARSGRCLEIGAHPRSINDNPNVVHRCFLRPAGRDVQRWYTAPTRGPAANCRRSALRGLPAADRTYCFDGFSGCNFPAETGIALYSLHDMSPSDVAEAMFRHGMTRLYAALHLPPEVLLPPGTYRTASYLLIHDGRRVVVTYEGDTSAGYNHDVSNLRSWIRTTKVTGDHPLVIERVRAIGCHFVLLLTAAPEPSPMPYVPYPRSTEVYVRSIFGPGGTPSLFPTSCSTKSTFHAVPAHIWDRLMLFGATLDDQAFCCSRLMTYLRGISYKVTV

Row | SMILES | Inhibition of HEV-MTase activity (HEV-MTase [1]) | IC50 (HEV-MTase [1]; 1 μM SAM, 0.5 mM GTP, 37 °C, 2 h, ligand 0 to 10 μM) [µM] | Kd (HEV-MTase [2]) [µM] | IC50 (p6 HEV-Luc Replicon; Hepatitis E virus, Huh-7, 72 h, read-out: 50% inhibitory concentration (IC50), HEV replicon) [µM] | Inhibition of HEV Replicon (luciferase activity) (p6 HEV-Luc Replicon) | Inhibition of HEV Replicon (luciferase activity) (p6 HEV-Luc Replicon; listed as HPPA) | ORF2 fluorescence level (HEV-ORF2 [3]) | ORF2 expression (Western blot) (HEV-ORF2 [4]) | Influenza virus propagation (Influenza virus) | viability at 72 h, 18.7 µM (in vitro) [%] | CC50 at 72 h [5] [µM] | Cytotoxic effects (Huh7 cells)
1 | O=C(O)Cc1ccc(O)cc1 [Compound 2, 2-(4-hydroxyphenyl)acetate] | inhibited the MTase activity |  |  |  |  |  |  |  |  |  |  | 
2 | O=C(O)CCc1ccc(O)cc1 [Compound 1, 3-(4-hydroxyphenyl)propionic acid] | maximum inhibition among all the inhibitors; also recorded: inhibited the MTase activity | 0.932 ± 0.15 | ~2 | 77.1 ± 18.7 | showed the inhibition of HEV Replicon | significantly reduced | ~ 25% | decrease in ORF2 expression | prevents Influenza virus propagation | ~95 | > 1000 | without any cytotoxic effects
3 | CO[C@H]1O[C@H](CO)[C@@H](O)[C@H](O)[C@@H]1O [Compound 6, (2R,3S,4S,5S,6S)-2-(hydroxymethyl)-6-methoxyoxane-3,4,5-triol] | inhibited the MTase activity |  |  |  |  |  |  |  |  |  |  | 
